A short description of one series: Solubility measurement. In kind it is physicochemical. From the text: Many standard techniques are known in the art to establish the solubility of a compound in a particular solvent. The following description is one such technique that could be used to determine the solubility: Equilibrium solubility measurements start with the solid form of the compound (crystalline form preferred). The powder is physically mixed with an aqueous buffer (defined pH) until equilibrium is reached. Either centrifugation or filtration can be used to separate the solution from the remaining solid. The amount dissolved in the solution can be determined by any one of many known methods including HPLC or UV/Vis spectroscopic techniques.

A short description of another series: Permeability. Particulars: for Papp: Caco-2. In kind it is in vitro ADME. The procedure:
Permeability assays using the Caco-2 colon carcinoma cell line are being used throughout the pharmaceutical industry to estimate the ability of potential drug compounds to cross the intestinal epithelium. Caco-2 cell permeability studies are performed using Caco-2 cell monolayers grown on microporous membranes in multiwell insert systems. With the inserts suspended in the wells of multiwell plates, test compounds can be added to either the upper (apical) or lower (basolateral) chamber to measure permeability in the absorptive (apical to basolateral) or secretive (basolateral to apical) directions. Samples are then taken from the opposite chamber at various time intervals to measure the amount of test compound that has crossed the cell monolayer. A representative method to generate permeability data similar to that in Table 3 can be found in Alsenz, J; Haenel, E. “Development of a 7-Day, 96-Well Caco-2 Permeability Assay with High-Throughput Direct UV Compound Analysis.” Pharmaceutical Research 2003 20(12): p 1961-1969.
Parallel artificial membrane permeability assay (PAMPA) utilizes a simple phospholipid-coated filter disc to measure membrane permeability. It was developed as an alternative to the low throughput. Caco-2 cell permeability assay used to correlate passive permeability with in vivo oral absorption. A representative publication disclosing this method is Kerns, E H; Di, L; Petusky, S; Farris, M; Ley, R; Jupp, P. “Combined application of parallel artificial membrane permeability assay and Caco-2 permeability assays in drug discovery.” J. Pharma Sci. 2004, 93 (6), pages 1440-53.
Cell culture methods (e.g. Caco-2, HT-29 and MDC) and physicochemical methods such as PAMPA and immobilized artificial membrane (IAM) columns are known in the art and can be used to obtain data such as that in Table 3. Hidalgo, I J; “Assessing the absorption of new pharmaceuticals.” Curr Top Med. Chem. 2001 November; 1(5): p 385-401.
(In general: Passage across Caco-2 layers is used to estimate intestinal permeability.)

The subject of the next series is P. falciparum Dd2. As to the kind of experiment: Inhibition of in vitro P. falciparum culture, [3H]-hypoxanthine uptake, Dd2. It counts as cell-based. Particulars: for EC50: read-out: Dd2 EC50; for IC50: read-out: Dd2 IC50. In outline: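 Parasite growth inhibition measured as relative reduction of [3H]-hypoxanthine uptake in in vitro cultures. Values from non-linear regression fit, using relative growth velocity in place of product-formation rate.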

Series [1] deals with Normal Human Dermal Fibroblasts. As to the kind of experiment: Normal Human Dermal Fibroblast Toxicity Screen. It counts as cell-based. The procedure, abridged: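 Fibroblasts seeded at 0.25 to 0.3×10^5 cells/mL, allowed 24 h at 37° C./5% CO2, then exposed to compounds for 96 hours. Viability read as Alamar Blue fluorescence after 3 h, with a T=0 plate, Tween 20 as positive control and DMSO as negative control.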

The nature of another series: Hepatic clearance, rat. In kind it is in vitro ADME. From the text: Clearance of drug by the liver will depend on the rate of delivery of drug to the liver (the hepatic blood flow) and on the efficiency of removal of drug which is presented to it (the extraction ratio). The hepatic clearance of compounds can be determined by standard methods known in the art. Such methods are described in, for example, Naritomi, Y; Terashita, S; Kagayama, A; Sugiyama, Y. “Utility of Hepatocytes in Predicting Drug Metabolism: Comparison of Hepatic Intrinsic Clearance in Rats and Humans in Vivo and in Vitro.” 2003, 31 (5): pages 580-588.

Series [2] is described as follows: Renal Proximal Tubule Epithelial Cell Toxicity Screen. It counts as cell-based. The procedure: The Renal Proximal Tubule Epithelial Cell Toxicity Screen is designed to determine whether compound mixtures, breakouts or single compounds are toxic to normal renal epithelial cells. […] Basically, the screen consists of plating renal epithelial cells, exposing them to the desired compound(s) for 4 days and measuring cell viability using the Alamar Blue reagent.
Harvested Kidney Epithelial cells were diluted in REGM to 1.5×10^4 cells/mL. […] NOTE: One plate, the T=0 plate required that 20-30 wells be seeded, and all the other plates had 96 wells seeded. Plates were incubated in 37° C./5% CO2 incubator for 24 hours.
Alamar Blue solution (25 μL/well) was added to the T=0 plate and mixed. The plate was incubated in 37° C./5% CO2 incubator for 4 hours, mixed and then the fluorescence was measured. 10% Tween 20 stock (10 μL) was added into rows A-D in column 1 (positive control). DMSO (0.5 μL) was added into column 2 (negative control). Compounds were placed into designated wells for desired testing as follows:
Plates were mixed on the shaker, and then incubated in 37° C./5% CO2 incubator for 96 hours. Day 6:
Alamar Blue solution (25 μL/well) was added to the plates containing the compounds and mixed. Plates were incubated in 37° C./5% CO2 incubator for 4 hours, mixed and the fluorescence was measured.

The next series deals with Cytochrome P450 2C19 (Homo sapiens (Human), UniProt P33261). Briefly: Cytochrome P450 inhibition, 2C19. It counts as in vitro ADME. From the text:
Rapid screening for cytochrome P450 inhibitors is part of the current paradigm for avoiding development of drugs likely to give clinical pharmacokinetic drug-drug interactions and associated toxicities. There are commercially available assays for such screenings. For example, BD Biosciences (http://www.bdbiosciences.com/index.shtml) provides a technical bulletin describing a detailed, step-by-step procedure for the performance of the high throughput cytochrome P450 inhibition testing method.

Where [3] appears, read: Table 3, [3H]-hypoxanthine uptake.
Where [4] appears, read: aqueous buffer, thermodynamic from solid, read-out: Solubility.
Setting [5] is: Plasmodium falciparum, DD2, Table 2b.
The mark [6] stands for this setting: Plasmodium falciparum, DD2, Table 3, [3H]-hypoxanthine uptake.

The values below come from patent US8703811B2, “Small molecule inhibitors of Plasmodium falciparum dihydroorotate dehydrogenase” (Genzyme Corporation, priority 2008, dated 2014).

Converted amounts (≈) assume the structure as drawn. Where two headings read alike, the source gives them in different places.

Chain of Cytochrome P450 2C19 (P33261 whole entry): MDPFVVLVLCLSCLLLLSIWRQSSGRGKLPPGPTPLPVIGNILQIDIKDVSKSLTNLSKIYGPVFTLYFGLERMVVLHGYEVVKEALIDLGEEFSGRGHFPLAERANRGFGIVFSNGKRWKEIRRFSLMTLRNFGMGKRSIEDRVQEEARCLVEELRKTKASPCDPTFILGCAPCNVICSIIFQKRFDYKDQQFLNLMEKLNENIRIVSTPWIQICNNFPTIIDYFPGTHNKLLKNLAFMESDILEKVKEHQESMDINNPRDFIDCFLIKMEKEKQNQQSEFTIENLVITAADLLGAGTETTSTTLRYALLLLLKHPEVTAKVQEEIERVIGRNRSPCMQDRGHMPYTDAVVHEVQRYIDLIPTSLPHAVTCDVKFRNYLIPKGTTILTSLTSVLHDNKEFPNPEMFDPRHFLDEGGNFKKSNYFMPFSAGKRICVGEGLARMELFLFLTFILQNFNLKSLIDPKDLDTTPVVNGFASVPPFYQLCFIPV

As for “5-(1H-indol-1-yl)-N-propylthiophene-2-carboxamide [Compound 7]”, in the series “Solubility measurement”, the solubility (usually the concentration that dissolves in the medium under given conditions) is 1 µg/mL. The Permeability in “Permeability” was determined as 52 cm/sec × 10^−6. The EC50 (usually the concentration at which the effect is half-maximal) in the series on P. falciparum Dd2 (Table 2b) amounted to 1.03 µM. Also, the IC50 (usually the point on the concentration scale where inhibition reaches its midpoint) in the series with P. falciparum Dd2 (setting [3]) amounted to 0.23 µM. For the same molecule, the CC50 in series [1] (four days exposure, Alamar Blue, read-out: Dermal Fibroblast LC50) was 50 µM.

Regarding `CCCNC(=O)c1ccc(-n2cnc3ccccc32)s1` [Compound 11, 5-(1H-benzo[d]imidazol-1-yl)-N-propylthiophene-2-carboxamide], in “Solubility measurement” (setting [4]), the solubility is over 30 µg/mL. In addition, in “Permeability”, the Papp (commonly the rate of passage across a membrane or cell layer, normalised by area and donor concentration) stood at 32 ×10⁻⁶ cm/s. Moreover, the EC50 with P. falciparum Dd2 (setting [5]) stood at 1.1 µM. In addition, the IC50 was determined as 0.955 µM in the series with P. falciparum Dd2 (setting [6]) and 1.25 µM in the series with P. falciparum Dd2 (setting [3]). Also, in the series “Hepatic clearance, rat”, the microsomal CLint (usually the capacity of the preparation to metabolise the compound, expressed as a volume cleared per time) is over 119 µL/min/mg. Moreover, the CC50 at 96 h in series [2] is over 62 µM. At Cytochrome P450 2C19, the “Cytochrome P450 Inhibition, 2C19” value is reported as over 5.0 in 2C19 μM.

As to `CCCNC(=O)c1ccc(-n2c(C)nc3ccccc32)s1` [Compound 12, 5-(2-methyl-1H-benzo[d]imidazol-1-yl)-N-propylthiophene-2-carboxamide], the solubility in “Solubility measurement” (setting [4]) was over 30 µg/mL. In “Permeability”, this molecule showed a Papp of 65 ×10⁻⁶ cm/s. Further, the microsomal CLint in “Hepatic clearance, rat” is 102 µL/min/mg. Besides, the “cytotoxicity in dermal fibroblasts” value in series [1] is on record as “No adverse cytotoxicity”. In series [2], the CC50 at 96 h is over 62 µM. For the same molecule, the “Cytochrome P450 Inhibition, 2C19” value at Cytochrome P450 2C19 is reported as over 5.0 in 2C19 μM.

Take `CCCNC(=O)c1ccc(-n2c(C)cc3ccccc32)s1` [Compound 1, 5-(2-methyl-1H-indol-1-yl)-N-propylthiophene-2-carboxamide]: the solubility in “Solubility measurement” (setting [4]) worked out at 0.9 µg/mL (≈ 3.02 µM). Moreover, the IC50 in the series on P. falciparum Dd2 (Plasmodium falciparum, DD2, Erythrocyte, [3H]-hypoxanthine uptake by parasite infected erythrocytes) came to 0.29 µM; with P. falciparum Dd2 (setting [6]) it was 0.25 µM. For the same molecule, in the series on P. falciparum Dd2 (setting [5]), the EC50 came to 0.493 µM. In addition, the CC50 at 96 h in series [2] is over 62 µM.
